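Values below derive from 48-hour exposures of cells grown in 96-well plates, with endpoints linearly interpolated between the two concentrations bracketing the appropriate inhibition level. Abbreviation: GI50, concentration required for 50% inhibition of growth. Definition used: TGI = concentration required for complete inhibition of growth.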
Experiments:
Assay in all cases: NCI tumour cell line growth inhibition, 48 h
786-0 renal = tested on: 786-0 renal
A498 renal = tested on: A498 renal
A549 NSCLC = tested on: A549 NSCLC
ACHN renal = tested on: ACHN renal
CAKI-1 renal = tested on: CAKI-1 renal
CCRF-CEM leukemia = tested on: CCRF-CEM leukemia
COLO 205 colon = tested on: COLO 205 colon
DU-145 prostate = tested on: DU-145 prostate
EKVX NSCLC = tested on: EKVX NSCLC
HCC-2998 colon = tested on: HCC-2998 colon
HCT-116 colon = tested on: HCT-116 colon
HCT-15 colon = tested on: HCT-15 colon
HL-60(TB) leukemia = tested on: HL-60(TB) leukemia
HOP-62 NSCLC = tested on: HOP-62 NSCLC
HOP-92 NSCLC = tested on: HOP-92 NSCLC
HS 578T breast = tested on: HS 578T breast
HT29 colon = tested on: HT29 colon
IGROV1 ovarian = tested on: IGROV1 ovarian
KM12 colon = tested on: KM12 colon
LOX IMVI melanoma = tested on: LOX IMVI melanoma
M14 melanoma = tested on: M14 melanoma
MALME-3M melanoma = tested on: MALME-3M melanoma
MCF7 breast = tested on: MCF7 breast
MDA-MB-435 = tested on: MDA-MB-435
MDA-MB-468 breast = tested on: MDA-MB-468 breast
MOLT-4 leukemia = tested on: MOLT-4 leukemia
NCI-H226 lung = tested on: NCI-H226 lung
NCI-H23 lung = tested on: NCI-H23 lung
NCI-H460 lung = tested on: NCI-H460 lung
NCI-H522 lung = tested on: NCI-H522 lung
NCI/ADR-RES ovarian = tested on: NCI/ADR-RES ovarian
OVCAR-3 ovarian = tested on: OVCAR-3 ovarian
OVCAR-4 ovarian = tested on: OVCAR-4 ovarian
OVCAR-5 ovarian = tested on: OVCAR-5 ovarian
OVCAR-8 ovarian = tested on: OVCAR-8 ovarian
PC-3 prostate = tested on: PC-3 prostate
RXF 393 renal = tested on: RXF 393 renal
SF-268 CNS = tested on: SF-268 CNS
SK-MEL-2 melanoma = tested on: SK-MEL-2 melanoma
SK-MEL-28 melanoma = tested on: SK-MEL-28 melanoma
SK-MEL-5 melanoma = tested on: SK-MEL-5 melanoma
SK-OV-3 ovarian = tested on: SK-OV-3 ovarian
SN12C renal = tested on: SN12C renal
SNB-19 CNS = tested on: SNB-19 CNS
SNB-75 CNS = tested on: SNB-75 CNS
SR leukemia = tested on: SR leukemia
SW-620 colon = tested on: SW-620 colon
T-47D breast = tested on: T-47D breast
TK-10 renal = tested on: TK-10 renal
U251 CNS = tested on: U251 CNS
UACC-257 melanoma = tested on: UACC-257 melanoma
UACC-62 melanoma = tested on: UACC-62 melanoma
UO-31 renal = tested on: UO-31 renal

O=C(OCCOCCO)N(c1cccc(Br)c1)c1nc(SCCN2CCOCC2)nc2c1cnn2CC(Cl)c1ccc(Br)cc1 (centres undefined)
GI50 (786-0 renal): 2.51 µM | TGI (786-0 renal): > 100 µM | GI50 (A498 renal): > 100 µM | TGI (A498 renal): > 100 µM | GI50 (A549 NSCLC): 5.04 µM | TGI (A549 NSCLC): > 100 µM | GI50 (ACHN renal): 3.9 µM | TGI (ACHN renal): > 100 µM | GI50 (CAKI-1 renal): 4.38 µM | TGI (CAKI-1 renal): > 100 µM | GI50 (CCRF-CEM leukemia): 2.89 µM | TGI (CCRF-CEM leukemia): 12.1 µM | GI50 (COLO 205 colon): 1.99 µM | TGI (COLO 205 colon): 4.43 µM | GI50 (DU-145 prostate): 9.88 µM | TGI (DU-145 prostate): > 100 µM | GI50 (EKVX NSCLC): 5.55 µM | TGI (EKVX NSCLC): > 100 µM | GI50 (HCC-2998 colon): 3.84 µM | TGI (HCC-2998 colon): > 100 µM | GI50 (HCT-116 colon): 2.62 µM | TGI (HCT-116 colon): > 100 µM | GI50 (HCT-15 colon): 2.84 µM | TGI (HCT-15 colon): 10.1 µM | GI50 (HL-60(TB) leukemia): 2.36 µM | TGI (HL-60(TB) leukemia): 6.25 µM | GI50 (HOP-62 NSCLC): 4.41 µM | TGI (HOP-62 NSCLC): > 100 µM | GI50 (HOP-92 NSCLC): 7.62 µM | TGI (HOP-92 NSCLC): > 100 µM | GI50 (HS 578T breast): 3.59 µM | TGI (HS 578T breast): > 100 µM | GI50 (HT29 colon): 2.73 µM | TGI (HT29 colon): > 100 µM | GI50 (IGROV1 ovarian): 8.25 µM | TGI (IGROV1 ovarian): > 100 µM | GI50 (KM12 colon): 3.88 µM | TGI (KM12 colon): > 100 µM | GI50 (LOX IMVI melanoma): 1.72 µM | TGI (LOX IMVI melanoma): 3.21 µM | GI50 (M14 melanoma): 3.67 µM | TGI (M14 melanoma): > 100 µM | GI50 (MALME-3M melanoma): 3.17 µM | TGI (MALME-3M melanoma): 17.8 µM | GI50 (MCF7 breast): 3.15 µM | TGI (MCF7 breast): > 100 µM | GI50 (MDA-MB-435): 3.83 µM | TGI (MDA-MB-435): > 100 µM | GI50 (MDA-MB-468 breast): 2.47 µM | TGI (MDA-MB-468 breast): 7.63 µM | GI50 (MOLT-4 leukemia): 2.31 µM | TGI (MOLT-4 leukemia): 6.51 µM | GI50 (NCI-H226 lung): 5.63 µM | TGI (NCI-H226 lung): > 100 µM | GI50 (NCI-H23 lung): 3.27 µM | TGI (NCI-H23 lung): 15 µM | GI50 (NCI-H460 lung): 3.77 µM | TGI (NCI-H460 lung): > 100 µM | GI50 (NCI-H522 lung): 3.15 µM | TGI (NCI-H522 lung): 13.1 µM | GI50 (NCI/ADR-RES ovarian): 3.52 µM | TGI (NCI/ADR-RES ovarian): > 100 µM | GI50 (OVCAR-3 ovarian): 5.54 µM | TGI (OVCAR-3 ovarian): > 100 µM | GI50 (OVCAR-4 ovarian): 3.05 µM | TGI (OVCAR-4 ovarian): > 100 µM | GI50 (OVCAR-5 ovarian): 5.15 µM | TGI (OVCAR-5 ovarian): > 100 µM | GI50 (OVCAR-8 ovarian): 6.93 µM | TGI (OVCAR-8 ovarian): > 100 µM | GI50 (PC-3 prostate): 3.28 µM | TGI (PC-3 prostate): > 100 µM | GI50 (RXF 393 renal): 1.78 µM | TGI (RXF 393 renal): 5.05 µM | GI50 (SF-268 CNS): 4.82 µM | TGI (SF-268 CNS): > 100 µM | GI50 (SK-MEL-2 melanoma): 6.68 µM | TGI (SK-MEL-2 melanoma): 22.1 µM | GI50 (SK-MEL-28 melanoma): 3.35 µM | TGI (SK-MEL-28 melanoma): 18 µM | GI50 (SK-MEL-5 melanoma): 10.1 µM | TGI (SK-MEL-5 melanoma): 70.7 µM | GI50 (SK-OV-3 ovarian): 5.21 µM | TGI (SK-OV-3 ovarian): > 100 µM | GI50 (SN12C renal): 4.91 µM | TGI (SN12C renal): > 100 µM | GI50 (SNB-19 CNS): 9.17 µM | TGI (SNB-19 CNS): 24.8 µM | GI50 (SNB-75 CNS): 3.34 µM | TGI (SNB-75 CNS): > 100 µM | GI50 (SR leukemia): 2 µM | TGI (SR leukemia): > 100 µM | GI50 (SW-620 colon): 3.71 µM | TGI (SW-620 colon): > 100 µM | GI50 (T-47D breast): 5 µM | TGI (T-47D breast): > 100 µM | GI50 (TK-10 renal): 93.4 µM | TGI (TK-10 renal): > 100 µM | GI50 (U251 CNS): 6.39 µM | TGI (U251 CNS): > 100 µM | GI50 (UACC-257 melanoma): 10.5 µM | TGI (UACC-257 melanoma): > 100 µM | GI50 (UACC-62 melanoma): 3.33 µM | TGI (UACC-62 melanoma): 12.4 µM | GI50 (UO-31 renal): 4.57 µM | TGI (UO-31 renal): > 100 µM

COc1ccc(C(=O)c2cc(C)c(OC)c(C)c2)c(OC)c1N(C(=O)CCl)C(=O)CCl
GI50 (MDA-MB-468 breast): 0.0296 µM | TGI (MDA-MB-468 breast): 1.37 µM

CCCCCC(=C/c1ccccc1)/C=N/N=C(N)N
GI50 (MDA-MB-468 breast): 1.56 µM | TGI (MDA-MB-468 breast): 3 µM

O=C(Nc1ccc(-n2ccc3c(NC(=O)c4ccccc4)nccc32)cc1)c1ccc(N2CCOCC2)c(C(F)(F)F)c1
GI50 (MDA-MB-468 breast): 1.74 µM | TGI (MDA-MB-468 breast): 19.2 µM

CC(=Nc1ccccc1)C1=C(O)C(Cc2ccc(F)cc2)NC1=O (centres undefined)
GI50 (MDA-MB-468 breast): 0.382 µM | TGI (MDA-MB-468 breast): 5.22 µM
